# Source: paper PMC5363247 (Angewandte Chemie (International Ed. in English), 2017)
# What was measured:
# factor Xa [1] = target: T1, factor Xa (Homo sapiens, UniProt P00742); assay: factor Xa enzyme activity; format: biochemical; settings: initial rates, Michaelis-Menten fit
# factor Xa [2] = target: T1, factor Xa; assay: fragment ligation assay, detection via biochemical assay; settings: read-out: inhibition of factor Xa
# T1 sequence (P00742 235-488 limits assumed): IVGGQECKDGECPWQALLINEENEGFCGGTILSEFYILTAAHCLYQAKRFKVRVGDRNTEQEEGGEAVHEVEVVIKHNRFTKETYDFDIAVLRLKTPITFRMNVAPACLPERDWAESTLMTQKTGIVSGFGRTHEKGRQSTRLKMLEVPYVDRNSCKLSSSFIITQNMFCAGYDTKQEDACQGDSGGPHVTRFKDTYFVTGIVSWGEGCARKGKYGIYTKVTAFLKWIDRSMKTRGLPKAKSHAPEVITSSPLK
# T1 sequence (P00742 41-179 partner limits assumed): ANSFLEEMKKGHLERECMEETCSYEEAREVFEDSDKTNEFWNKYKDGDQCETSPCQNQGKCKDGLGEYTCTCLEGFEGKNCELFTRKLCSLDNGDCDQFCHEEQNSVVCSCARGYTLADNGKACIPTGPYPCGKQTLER
K M of fluorogenic substrate (factor Xa [1]),inhibition at 285 µM (factor Xa [2]),Compound
76 µM,,7‐(N‐Boc‐leucinyl‐glycinyl‐arginyl)‐7‐amino‐4‐methylcoumarin
,20%,"N=C(N)c1ccc(CN)cc1 [compound 14, 4‐Aminomethylbenzamidine]"
